Experimental data from PMC11842588, “A first-in-class selective inhibitor of ERK1/2 and ERK5 overcomes drug resistance with a single-molecule strategy” (Signal Transduction and Targeted Therapy, 2025).

Tests used:
[1] = Body weight and adverse effects in xenograft study; assay type: in vivo, nude mice (BALB/c-nu); conditions: 25 and 50 mg/kg orally daily for 16 days
Protocol: (§1) All procedures were performed in accordance with the Laboratory Animals Welfare Act, the Guide for the Care and Use of Laboratory Animals and the Guidelines and Policies. The rodent experiment was approved by IACUC (Institutional Animal Care and Use Committee) in the Experimental Animal Ethics Committee of West China Hospital (Approval No. 2021672A). 48 female nude mice (BALB/c-nu, 5 weeks, 15–18 g, purchased from Beijing HFK Bio-Technology Co., LTD) were acclimatized for one week in an SPF-grade animal facility (ventilated, 20–25 °C, 50–60% humidity). […] When the tumor volume reached approximately 100 mm^3 (V = L × W^2/2), the mice were randomly divided into six groups (n = 8 per group): (1) Control group (normal saline); (2) 25 mg/kg SKLB-D18-treated group; (3) 50 mg/kg SKLB-D18-treated group; (4) 50 mg/kg BVD-523-treated group; (5) 50 mg/kg XMD8-92-treated group; (6) BVD-523 (50 mg/kg) and XMD8-92 (50 mg/kg) combined treatment group. Drugs were freshly prepared with 5% DMSO, 10% Solutol HS-15, and 85% normal saline on the day of administration. Intragastric administration occurred once daily at the same time for 16 consecutive days. And the body weight and tumor volume of mice were measured every three days. After the administration period, all nude mice were euthanized by cervical dislocation the next day. […]

[2] = Liver microsome metabolic stability; assay type: in vitro ADME
Protocol: An appropriate amount of SD rat and human liver microsomal solution was incubated at 37 °C with a specified concentration of candidate compounds for 5 min, and then NADPH reaction system was added to initiate metabolic reaction. The reaction was terminated at a series of time points by adding acetonitrile solution containing an internal standard compound. Centrifuge at 12,000 rpm for 20 min, take the supernatant solution, and place it in a vacuum centrifuge to dry. After acetonitrile was dissolved, the supernatant solution was centrifugated, and the remaining compounds were quantified by LC-MS to evaluate the metabolic stability of liver microsomes.

Ki-67 = assay: IHC of Ki-67 in xenograft tumor tissue; assay type: in vivo, nude mice (BALB/c-nu); conditions: 50 mg/kg
Protocol: as §1, with “Intragastric administration occurred once daily at the same time for 16 consecutive days.” left out, “days.” for “days. After the administration period, all nude mice were euthanized by cervical dislocation the next day.”
Briefly, tumor tissues were dehydrated, embedded, and sectioned. […] Microscopic analysis and imaging were performed, analyzed with ImageJ, and statistical graphs were created using GraphPad Prism 9.5. […]

PRK2(h) = target: T1, PRK2(h) (Homo sapiens, UniProt Q16513); assay: Kinase profiling; assay type: biochemical
T1 construct: purchased Eurofins Cerep SA (KinaseProfiler)
Protocol: (§2) 380 kinases inhibitory activities of SKLB-D18 were conducted by Eurofins Cerep SA. The result was illustrated by kinase tree (http://www.kinhub.org/kinmap/).

IRR(h) = target: T2, IRR(h) (Homo sapiens, UniProt P14616); assay: Kinase profiling; assay type: biochemical
T2 construct: purchased Eurofins Cerep SA (KinaseProfiler)
T2 sequence (P14616 27-1297): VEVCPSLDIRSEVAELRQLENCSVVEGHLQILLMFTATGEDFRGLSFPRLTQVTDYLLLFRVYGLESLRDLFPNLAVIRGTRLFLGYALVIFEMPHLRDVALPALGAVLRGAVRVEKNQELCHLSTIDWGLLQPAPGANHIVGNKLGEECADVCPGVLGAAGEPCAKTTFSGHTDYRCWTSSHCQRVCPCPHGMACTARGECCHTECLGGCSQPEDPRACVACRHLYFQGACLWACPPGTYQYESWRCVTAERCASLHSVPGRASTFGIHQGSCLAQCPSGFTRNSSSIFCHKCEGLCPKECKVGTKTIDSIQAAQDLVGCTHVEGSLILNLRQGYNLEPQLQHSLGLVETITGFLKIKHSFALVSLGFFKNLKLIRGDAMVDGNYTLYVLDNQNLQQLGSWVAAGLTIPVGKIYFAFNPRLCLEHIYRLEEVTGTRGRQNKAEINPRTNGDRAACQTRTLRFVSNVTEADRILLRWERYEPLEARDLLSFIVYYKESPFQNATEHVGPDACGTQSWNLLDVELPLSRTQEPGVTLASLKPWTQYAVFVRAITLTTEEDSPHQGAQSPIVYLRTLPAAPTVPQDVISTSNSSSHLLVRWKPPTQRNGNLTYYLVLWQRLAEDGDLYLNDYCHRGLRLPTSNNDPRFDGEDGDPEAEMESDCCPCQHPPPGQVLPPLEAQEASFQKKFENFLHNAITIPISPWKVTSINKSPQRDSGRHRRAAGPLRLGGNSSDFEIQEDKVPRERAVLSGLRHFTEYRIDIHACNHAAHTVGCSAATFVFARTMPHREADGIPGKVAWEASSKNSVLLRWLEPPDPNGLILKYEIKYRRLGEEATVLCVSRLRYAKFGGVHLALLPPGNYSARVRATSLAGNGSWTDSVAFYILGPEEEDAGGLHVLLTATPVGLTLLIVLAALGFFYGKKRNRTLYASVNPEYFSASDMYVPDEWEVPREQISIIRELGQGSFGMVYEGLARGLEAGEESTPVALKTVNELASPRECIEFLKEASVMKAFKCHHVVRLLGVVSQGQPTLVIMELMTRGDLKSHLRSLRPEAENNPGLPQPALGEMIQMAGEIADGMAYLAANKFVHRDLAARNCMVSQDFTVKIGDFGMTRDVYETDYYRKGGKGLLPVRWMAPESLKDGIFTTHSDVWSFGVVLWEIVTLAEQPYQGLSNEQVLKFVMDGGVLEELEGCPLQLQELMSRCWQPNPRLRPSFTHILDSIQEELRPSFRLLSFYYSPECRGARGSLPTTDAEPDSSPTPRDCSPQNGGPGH
Protocol: as §2

LKB1(h) = target: T3, LKB1(h) (Homo sapiens, UniProt Q15831); assay: Kinase profiling; assay type: biochemical
T3 construct: purchased Eurofins Cerep SA (KinaseProfiler)
T3 sequence (Q15831 whole entry): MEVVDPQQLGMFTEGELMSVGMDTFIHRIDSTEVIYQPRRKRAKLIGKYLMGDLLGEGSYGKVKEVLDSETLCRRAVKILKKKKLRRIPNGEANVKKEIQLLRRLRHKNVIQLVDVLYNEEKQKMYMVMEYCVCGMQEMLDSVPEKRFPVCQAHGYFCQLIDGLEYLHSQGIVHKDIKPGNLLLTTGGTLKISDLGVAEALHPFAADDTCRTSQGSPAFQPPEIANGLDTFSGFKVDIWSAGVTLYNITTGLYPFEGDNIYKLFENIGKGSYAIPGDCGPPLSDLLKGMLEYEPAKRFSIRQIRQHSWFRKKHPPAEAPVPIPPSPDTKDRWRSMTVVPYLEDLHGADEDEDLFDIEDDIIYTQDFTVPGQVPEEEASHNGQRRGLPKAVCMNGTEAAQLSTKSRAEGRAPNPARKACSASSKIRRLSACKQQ
T3 sequence (Q7RTN6 whole entry partner): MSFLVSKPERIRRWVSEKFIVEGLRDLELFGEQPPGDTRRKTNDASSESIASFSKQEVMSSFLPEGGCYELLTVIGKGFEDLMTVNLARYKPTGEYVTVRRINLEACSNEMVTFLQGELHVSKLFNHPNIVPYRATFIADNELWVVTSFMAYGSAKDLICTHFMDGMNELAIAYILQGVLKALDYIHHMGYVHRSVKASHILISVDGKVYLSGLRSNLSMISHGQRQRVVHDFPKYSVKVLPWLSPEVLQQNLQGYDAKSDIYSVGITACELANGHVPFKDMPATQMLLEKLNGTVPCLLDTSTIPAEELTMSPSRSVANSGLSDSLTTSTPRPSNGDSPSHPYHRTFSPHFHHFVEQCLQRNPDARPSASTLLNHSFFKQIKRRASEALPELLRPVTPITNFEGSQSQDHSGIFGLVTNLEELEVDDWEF
T3 sequence (Q9Y376 whole entry partner): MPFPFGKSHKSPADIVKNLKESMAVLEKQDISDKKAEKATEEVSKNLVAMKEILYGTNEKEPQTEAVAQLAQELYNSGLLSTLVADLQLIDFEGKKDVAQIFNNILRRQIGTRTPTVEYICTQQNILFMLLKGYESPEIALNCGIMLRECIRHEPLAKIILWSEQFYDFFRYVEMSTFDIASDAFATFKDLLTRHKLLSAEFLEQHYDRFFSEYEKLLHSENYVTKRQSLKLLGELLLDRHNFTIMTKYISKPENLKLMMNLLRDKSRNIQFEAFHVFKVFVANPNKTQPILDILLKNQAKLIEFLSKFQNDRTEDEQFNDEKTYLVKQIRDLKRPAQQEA
Protocol: as §2

MSK1(h) = target: T4, MSK1(h) (Homo sapiens, UniProt O75582); assay: Kinase profiling; assay type: biochemical
T4 construct: purchased Eurofins Cerep SA (KinaseProfiler)
T4 sequence (O75582 whole entry): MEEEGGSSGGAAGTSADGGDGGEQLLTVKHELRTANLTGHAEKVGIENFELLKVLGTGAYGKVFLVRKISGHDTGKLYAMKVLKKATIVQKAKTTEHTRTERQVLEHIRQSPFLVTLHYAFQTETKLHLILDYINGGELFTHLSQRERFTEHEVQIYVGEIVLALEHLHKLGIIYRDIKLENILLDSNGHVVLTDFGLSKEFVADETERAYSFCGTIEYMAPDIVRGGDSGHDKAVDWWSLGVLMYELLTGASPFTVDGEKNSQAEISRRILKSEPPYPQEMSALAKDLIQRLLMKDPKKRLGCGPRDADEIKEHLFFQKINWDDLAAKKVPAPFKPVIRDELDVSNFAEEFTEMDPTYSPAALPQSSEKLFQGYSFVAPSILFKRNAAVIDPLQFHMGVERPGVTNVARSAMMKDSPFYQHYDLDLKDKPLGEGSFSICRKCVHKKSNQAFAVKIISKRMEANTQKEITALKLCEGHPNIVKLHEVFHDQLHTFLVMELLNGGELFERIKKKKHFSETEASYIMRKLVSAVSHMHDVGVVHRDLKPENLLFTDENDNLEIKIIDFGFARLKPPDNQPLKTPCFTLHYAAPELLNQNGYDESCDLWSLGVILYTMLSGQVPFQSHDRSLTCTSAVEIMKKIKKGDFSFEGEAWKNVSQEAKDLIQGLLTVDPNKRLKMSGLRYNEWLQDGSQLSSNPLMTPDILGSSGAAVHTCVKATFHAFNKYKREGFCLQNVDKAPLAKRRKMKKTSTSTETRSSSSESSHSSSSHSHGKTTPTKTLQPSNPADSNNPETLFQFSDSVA
Protocol: as §2

ERK2 = ERK2 (Homo sapiens, UniProt P28482); assay: ADP-Glo kinase assay; assay type: biochemical
Sequence of ERK2 (P28482 whole entry, the tested form may be a part): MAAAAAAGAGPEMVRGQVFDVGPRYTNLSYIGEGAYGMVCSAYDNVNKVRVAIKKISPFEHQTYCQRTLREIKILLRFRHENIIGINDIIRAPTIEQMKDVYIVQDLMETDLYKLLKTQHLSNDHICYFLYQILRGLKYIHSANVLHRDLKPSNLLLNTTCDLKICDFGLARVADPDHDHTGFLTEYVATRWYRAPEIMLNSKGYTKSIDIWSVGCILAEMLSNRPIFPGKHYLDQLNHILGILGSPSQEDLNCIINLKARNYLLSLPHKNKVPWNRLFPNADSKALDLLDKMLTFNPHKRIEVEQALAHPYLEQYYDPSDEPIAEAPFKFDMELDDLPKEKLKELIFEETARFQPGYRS
Protocol: (§3) The full-length human ERK1 or ERK2 with His-tag was cloned into a pET28a vector. hERK1/2 were expressed in Escherichia coli BL21(DE3), and then were purified using sequential Ni-NTA and Superdex 200 column steps. The SEC purified sample was then concentrated to 10 mg/ml and stored at −80 °C with buffer containing 20 mM HEPES pH 7.5, 150 mM NaCl. ERK5 (residues 48–395) containing His and GST tags was cloned into the pFastBac vector, and the recombinant plasmid was extracted. The recombinant plasmid was transformed into the DH10bac strain, and monoclonal was selected for culture. The recombinant Bacmid was then extracted according to the instructions of the Baculovirus Shuttle Vector Bacmid Mini Preparation Kit (Beyotime) and validated by PCR. 1 × 10^6/well Sf9 cells were counted for transfection and then amplified to obtain P3 ERK5 recombinant baculovirus. It was added to 2 × 10^6/mL Sf9 cells and incubated at 27 °C for 72 h on a shaker to express ERK5. Cells were lysed and supernatant was collected on a Ni-NTA for purification, and a 250 mM imidazole eluate was collected. Next, digestion by TEV protease was performed overnight while dialysis was performed in approximately 1000 mL of imidazole-free buffer. The digested ERK5 protein was sequentially purified on the Ni-NTA and GST-tag Purification Resin, followed by size exclusion chromatography on a Superdex 75 column. ERK5 protein was collected and concentrated to 12 mg/ml and stored at −80 °C in buffer containing 50 mM HEPES pH 8.0, 200 mM NaCl, 10% (v/v) glycerol.
(§4) ERK1/2/5 kinase activity assay was conducted using ADP-Glo™ Kinase Assay. 2× ATP solution and 2× kinase & Metal solution were prepared using assay buffer were prepared using assay buffer containing 50 mM Hepes pH 7.5, 10 mM MgCl2; 0.01% Brij35, 1 mM EGTA, 2 mM DTT. Transfer 40 nL compounds to 384 assay plate. Add 2 μL of 2× kinase & Metal solution were mixed and incubated in a 384-assay plate for 10 min at 25 °C. 2 μL of 2×ATP solution was added and incubated at 25 °C for 60 min. And then, each well was supplemented with 4 µL of ADP-Glo^TM reagent and incubated at 25 °C for 40 min. Subsequently, 8 µL of Kinase Detection Reagent was added and incubated at 25 °C for 40 min. Finally, the luminescence signals were recorded. The IC50 values were calculated using GraphPad Prism 9.5 software.

ERK5 = ERK5 (Homo sapiens, UniProt Q13164); assay: ADP-Glo kinase assay; assay type: biochemical
Sequence of ERK5 (Q13164 whole entry): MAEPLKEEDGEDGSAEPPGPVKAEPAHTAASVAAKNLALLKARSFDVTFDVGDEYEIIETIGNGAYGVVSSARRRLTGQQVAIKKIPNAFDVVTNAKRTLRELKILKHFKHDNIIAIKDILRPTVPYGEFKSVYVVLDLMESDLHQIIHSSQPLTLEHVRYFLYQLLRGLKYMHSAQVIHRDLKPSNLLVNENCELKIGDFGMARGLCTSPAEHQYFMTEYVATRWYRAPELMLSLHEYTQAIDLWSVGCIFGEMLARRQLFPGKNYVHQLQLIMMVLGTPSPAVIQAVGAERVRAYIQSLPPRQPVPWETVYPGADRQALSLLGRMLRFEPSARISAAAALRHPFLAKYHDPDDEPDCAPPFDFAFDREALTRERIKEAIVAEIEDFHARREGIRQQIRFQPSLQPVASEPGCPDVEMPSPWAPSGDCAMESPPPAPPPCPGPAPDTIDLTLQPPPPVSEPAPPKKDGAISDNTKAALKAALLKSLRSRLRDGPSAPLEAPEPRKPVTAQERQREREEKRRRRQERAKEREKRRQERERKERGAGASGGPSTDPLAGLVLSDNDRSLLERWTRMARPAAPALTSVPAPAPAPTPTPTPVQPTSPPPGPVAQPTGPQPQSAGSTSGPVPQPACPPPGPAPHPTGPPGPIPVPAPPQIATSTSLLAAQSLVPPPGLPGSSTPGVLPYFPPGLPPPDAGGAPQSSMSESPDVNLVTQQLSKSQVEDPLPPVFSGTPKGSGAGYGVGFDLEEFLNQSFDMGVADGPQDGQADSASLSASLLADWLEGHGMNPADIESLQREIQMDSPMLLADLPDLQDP
Protocol: as §3, §4

ERK1 = ERK1 (Homo sapiens, UniProt P27361); assay: ADP-Glo kinase assay; assay type: biochemical
Sequence of ERK1 (P27361 whole entry): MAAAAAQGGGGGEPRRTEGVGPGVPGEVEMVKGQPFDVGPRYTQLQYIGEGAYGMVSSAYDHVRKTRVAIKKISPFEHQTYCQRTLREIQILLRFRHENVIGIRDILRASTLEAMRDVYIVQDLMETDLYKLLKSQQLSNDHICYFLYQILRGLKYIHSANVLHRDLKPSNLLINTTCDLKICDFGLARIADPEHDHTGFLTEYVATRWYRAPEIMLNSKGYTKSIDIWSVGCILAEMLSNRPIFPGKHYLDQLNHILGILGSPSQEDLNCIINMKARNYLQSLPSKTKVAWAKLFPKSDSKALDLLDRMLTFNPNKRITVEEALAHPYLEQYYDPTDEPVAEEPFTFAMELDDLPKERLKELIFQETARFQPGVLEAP
Protocol: as §3, §4

## CN(C)Cc1cccc(Nc2ncc(Cl)c(-c3csc(C(=O)NN4CCOCC4)c3)n2)c1 [SKLB-D18, 4-(5-chloro-2-((3-((dimethylamino)methyl)phenyl)amino)pyrimidin-4-yl)-N-morpholinothiophene-2-carboxamide]
[1]
  weight loss or adverse effects: No significant weight loss or adverse effects
[2]; SD rat liver microsomes
  Residual rate (%): 25.8%
  T1/2: 32.51 min
  microsomal CLint: 42.6 µL/min/mg
[2]; SD, rat, liver microsomes
  half-life: 32.5 min
[2]; human liver microsomes
  Residual rate (%): 69.42%
  half-life: 91.6 min
  microsomal CLint: 15.1 µL/min/mg
Ki-67
  Ki-67 positive area: less than 20%
PRK2(h)
  inhibition at 1 µM: 64%
IRR(h)
  inhibition at 1 µM: 57%
LKB1(h)
  inhibition at 1 µM: 29%
MSK1(h)
  inhibition at 1 µM: 17%
ERK2; ADP-Glo
  IC50: 40.1 ± 0.95 nM
ERK2; read-out: Enzyme inhibitory activity (500 nM, %) ERK2
  inhibition at 0.5 µM: 93.2 ± 1.45%
ERK5; ADP-Glo
  IC50: 59.7 ± 1.21 nM
ERK5; read-out: Enzyme inhibitory activity (500 nM, %) ERK5
  inhibition at 0.5 µM: 93.1 ± 1.03%
ERK1; ADP-Glo
  IC50: 38.7 ± 0.62 nM
ERK1; read-out: Enzyme inhibitory activity (500 nM, %) ERK1
  inhibition at 0.5 µM: 95.62 ± 0.84%
